Test results as given in patent US20110152373A1, “HAIR GROWTH PROMOTING AGENT CONTAINING 15,15-DIFLUOROPROSTAGLANDIN F2ALPHA DERIVATIVE AS ACTIVE INGREDIENT” (SANTAN PHARMACEUTICAL CO., LTD., priority 2008, published 2011).

System: eyelashes of patients with open-angle glaucoma or ocular hypertension
Test: European Phase III clinical trial: eyelash findings from photographs compared with base line
Type: in vivo, human
Settings: for Color of eyelashes was changed (number of patients with finding) / Eyelashes were grown (number of patients with finding) / Eyelashes were made thicker (number of patients with finding): eye drop (0.0015% tafluprost or 0.005% latanoprost) once a day, one drop, total 264 patients per group
Method: A European Phase III clinical trial for tafluprost, one of the 15,15-difluoroprostaglandin F2α derivatives, with patients with open-angle glaucoma or ocular hypertension was performed by the following test method, and tafluprost was evaluated for findings associated with the eyelashes and an peripheral area thereof, that is, the evaluation was performed as to whether eyelashes were grown, eyelashes were made thicker, and the color of eyelashes was changed by the following evaluation method.
Patients with open-angle glaucoma or ocular hypertension were randomly allocated to two groups (a 0.0015% tafluprost eye drop group and a 0.005% latanoprost eye drop group) and received the eye drop once a day at a dose of one drop for 24 months in a double-blind manner after a washout period for 5 days to 4 weeks or more according to need prior to the glaucoma medication.
The eyelashes and eyelids were photographed at 0 (base line), 3, 6, 12, 18, and 24 months, and the photographs were compared with the base line, and the presence or absence of findings (eyelashes were grown, eyelashes were made thicker, and the color of eyelashes was changed) was confirmed.

Row | Structure (SMILES) | Effect of promoting the growth of hair (eyelashes), in words (0.0015% eye drop once a day for 24 months, conclusion from Table 1) | Eyelash actions compared with those of latanoprost, in words (0.0015% tafluprost eye drop vs 0.005% latanoprost eye drop, 24 months) | Color of eyelashes was changed (number of patients with finding) (24 months) [patients] | Eyelashes were grown (number of patients with finding) (24 months) [patients] | Eyelashes were made thicker (number of patients with finding) (24 months) [patients]
1 | CC(C)OC(=O)CCC/C=C\C[C@@H]1[C@@H](/C=C/C(F)(F)COc2ccccc2)[C@H](O)C[C@@H]1O [Tafluprost, tafluprost] | has actions of growing eyelashes, making eyelashes thicker, and changing the color thereof | significant effects as compared with those of latanoprost | 13 | 17 | 5
2 | CC(C)OC(=O)CCC/C=C\C[C@@H]1[C@@H](CC[C@@H](O)CCc2ccccc2)[C@H](O)C[C@@H]1O [Latanoprost, latanoprost, reference compound] | – | – | 10 | 11 | 4
